Measured values published in US12030896B2, “PIKfyve inhibitors” (Mayo Foundation for Medical Education and Research, priority 2018, dated 2024).

Tests used:
[1] = system: U251 or RKO cells; assay: Cathepsin D western blotting; assay type: cell-based; details: 18 hours
Experimental: Macroautophagy (hereafter “autophagy”) is a process that requires precise fusion of endosomes, autophagosomes, and lysosomes. Lysates from cells treated with Example 1 were prepared and probed by western blotting for LC3-I and LC3-II. Increased levels of LC3-II and increased p62 (sequestesome) were found showing the increased drive to undergo autophagy, in the face of inability to complete the process (i.e. ineffective autophagy). Lysosomes are the final destination of proteins destined for degradation by autophagy, and proteolysis in this organelle depends upon cathepsins among other enzymes.
U251 or RKO cells were treated with Example 1 at the indicated concentrations for 18 hours, and then analyzed by western blotting for cathepsin D and actin (loading control).
U251 or RKO cells were plated onto 10 cm tissue culture dishes and grown in the conditions described previously. When cells were growing in log phase and reached approximately 60% confluency, Example 1 was diluted into the growth media at the indicated concentrations. Cells were incubated at 5% CO2, 37° C. for 18 hr, then washed and harvested as described previously. Cells were pelleted by centrifugation at 180×g, resuspended in 20 mL of 1×PBS pH 7.4, and centrifuged again. […]

[2] = system: murine lymphoma cells; assay: Vacuolization seen by light microscopy; assay type: cell-based
Experimental: Vacuolization due to treatment with Example 1 compound was extremely rapid, becoming visible by light microscopy within 30 minutes or less.

SMILES: Cc1ccc(Nc2nc(N/N=C/c3c[nH]c4ccccc34)nc(N3CCOCC3)n2)cc1 [Example 1, (E)-4-(2-((1H-indol-3-yl)methylene)hydrazinyl)-6-morpholino-N-(p-tolyl)-1,3,5-triazin-2-amine]
- mature cleaved cathepsin [1]: relative loss
- uncleaved precursor cathepsin D [1]: accumulation
- time until vacuolization visible by light microscopy [2]: ≤ 30 min
